# Assay results taken from a melting point compilation (Tetko et al.; mined from patent text by program, amines drawn as free bases though some values may be those of a salt).
row,Compound,melting point [°C]
1,CCCCC[C@@H](CNC(=O)Nc1c(OC(C)C)c(C)nn1C(C)(C)C)c1cccc2c1OCO2,98.5 to 99
2,CCn1cc(C(=O)O)c(=O)c2cc(F)c(N3C[C@@H](N)[C@@H](C)C3)c(Cl)c21 (relative stereo),222 to 224
3,COc1ccc(-c2cc(-c3ccc(-c4c(Cc5ccccc5)sc5ccccc45)c(Br)c3)ccc2OCC(=O)O)cc1OC,103 to 105
4,O=C1COc2ccc(CCCCCc3ccc4c(c3)NC(=O)CO4)cc2N1,189 to 190
5,CC1(C)SC2C(N3C(=O)C(C4=CCC=CC4)NC3(C)C)C(=O)N2C1C(=O)O (stereo unspecified),186
6,CCCCCCCCOc1cc(OC)cc(N)c1OCOC,59
7,CCCCCCCCCCCCCCCCCCOc1cc(C(=O)O)cc(C(=O)OC)c1,81 to 83
8,CC(C#CCOc1cccc(Oc2cccnc2)c1)N(O)C(N)=O (stereo unspecified),131 to 132
9,O=C1CCC(c2ccccc2)(c2ccccc2)C2CN(C(Cc3ccccc3)=NCc3ccccc3F)CC12 (stereo unspecified),160
10,COc1ccc(N2CCN(C(=O)c3ccccc3C(c3ccc(O)cc3)c3ccc(O)cc3)CC2)cc1,208 to 210
11,CC1C(=O)OC2COCC21 (stereo unspecified),89.5 to 90
12,CC(C)C[C@H]1CN(Cc2ccccc2)C[C@@H]1C(=O)O,236 to 239
13,O=C(NCCCc1ccncc1)N(CCCC(F)(F)F)CCC12CC3CC(CC(C3)C1)C2,143 to 145
14,COc1ccccc1SCC(=O)NCCCCCC(=O)O,95 to 97
15,C=CCC1C(=O)N(Cc2ccccc2)c2ccccc2NC1C (stereo unspecified),81 to 83
16,NCCNC(=O)CN1CCC(O)C1=O (stereo unspecified),110 to 112
17,CCCc1cc2c(s1)[C@@H](O)[C@H]1C[C@]2(O)C(=O)O1,120 to 125
18,CCOC(=O)C(=O)CC(=O)/C=C/c1ccc(Cl)cc1,117 to 118
19,CCCCCC(=O)Nc1ncc(OC)cn1,102
20,CSc1ncc(C#N)c(NC2CCCC2)n1,119 to 122
21,Cc1nccn1N=Cc1cc(C(C)(C)C)c(O)c(C(C)(C)C)c1,206 to 207
22,CCCCC(CC)COC(=O)c1cc(CN(CC(=O)O)CC(=O)O)c(O)c(CN(CC(=O)O)CC(=O)O)c1 (stereo unspecified),133 to 141
23,Cc1sc2c(c1C)C(c1ccc(Cl)cc1)=NC(CC(=O)O)c1nnc(C)n1-2 (stereo unspecified),166 to 177
24,CCC[C@@](CCc1ccccc1)(CC(=O)OCOc1ccc(-c2ccccc2)cc1)OCOc1ccc(-c2ccccc2)cc1,104 to 106
25,O=C(O)C(=O)N1CCC(Cc2ccc(F)cc2)CC1,152 to 154
26,C/C(=C(\C#N)C(N)=S)N1CCCN(c2ccc(F)c(Cl)c2)CC1,148 to 150

row,Compound,melting point [°C]
1,CC(CO)C1CCC2=C3C=CC4C(C)(C)C(OC(=O)c5ccccc5)CCC4(C)C3CCC21C (stereo unspecified),218 to 220
2,NC(=O)CON=C(C(=O)O)c1ccco1,143 to 145
3,O=C(NCC12CC3CC(CC(C3)C1)C2)c1c(Cl)ccc2nc(N3CCC[C@@H](C(=O)O)C3)ccc12,257 to 262
4,CC(C)(Oc1ccc(C#N)cc1Cl)c1ccccc1,60 to 62
5,COC(=O)CCCc1ccc(C(=O)C=Cc2ccccc2)cc1,43 to 44
6,C=CC(=O)Nc1ccc2c(c1)nnn2C(C)=O,167 to 170
7,c1ccc(CN2CCN(Cc3ccccc3)[C@@H](CCc3cccnc3)C2)cc1,94 to 95.5
8,CCCCNC(=O)NS(=O)(=O)c1cscc1C,126 to 131
9,CC1(C)OCCC2CC(=O)N21 (stereo unspecified),60 to 61
10,COC1(OC)C(=O)NC(Nc2ncnc3c2ncn3C2OC(CO)C(O)C2O)C1Cl (stereo unspecified),110 to 120
11,CCC(Br)C(=O)Nc1c(C)cccc1C (stereo unspecified),180 to 190
12,CCC(=O)NC[C@@H]1C[C@H]1c1cccc2nn(C)cc12 (relative stereo),79 to 80
13,O=C(O)CCc1ccc(CCN2CCN(S(=O)(=O)c3ccccc3)CC2)cc1,177 to 178
14,CCN(C(=O)C1CC1)c1cn(-c2cccnc2)nc1Cl,111 to 119
15,CC#CCOc1cc(C=O)ccc1OC,81 to 83
16,CCOC(=O)c1ncn(-c2nncs2)c1S,182 to 185
17,CON1C(=O)CC2(CCN(C(=O)c3cccnc3)CC2)C1=O,199 to 201
18,CN(C)c1ccc(NC(=O)N(Cc2ccco2)C[C@H]2CC[C@H](CN(Cc3ccco3)C(=O)Nc3ccc(N(C)C)cc3)CC2)cc1,129 to 132
19,NC1=NCC(COc2ccccc2[N+](=O)[O-])O1 (stereo unspecified),166
20,CC1(C)CC(=O)Nc2ccccc21,111 to 112
21,CC(C)(C)c1cc(OC[Si](C)(C)Cc2ccccc2)cc(C(C)(C)C)c1O,76 to 77
22,Cc1nnc(CN2C(=O)c3ccccc3C2=O)n1-c1ccc(Cl)cc1C(=O)c1ccccc1Cl,262 to 265
23,BrCc1cc2ccccc2s1,107 to 109
24,O=C1CC(O)CC(/C=C/c2c(Cl)cc(Cl)cc2OCc2ccccc2)O1 (stereo unspecified),109 to 112
25,Cc1cc(C2=NOC(c3cc(Cl)cc(Cl)c3)(C(F)(F)F)C2)ccc1C(=O)NCO (stereo unspecified),69 to 73.5

# Continued, values first:
row,melting point [°C],Compound
1,156 to 157,CS(=O)(=O)Nc1ccc(C(=O)C2CCN(CCc3cnc4ccccc4n3)CC2)cc1
2,304 to 306,O=C1CC(c2ccc(O)cc2)=Nc2ccc(N3CCCC3)cc21
3,201,c1ccc(N=C2N=C(c3ccccc3)N=C2Nc2ccccc2)cc1
4,99 to 100,CCC(O)(CC)Cc1ccc(NC(=O)OCc2ccccc2)cc1
5,105 to 115,CN1C(=O)CCC2(C)c3ccc(C(=O)c4ccccc4Cl)cc3CCC12 (stereo unspecified)
6,70,CCOC(=O)c1cn(C(C)CSc2ccccc2)c2nc(F)c(Cl)cc2c1=O (stereo unspecified)
7,195 to 198,CC(Nc1ncnc2[nH]cnc12)c1oc2cccc(F)c2c(=O)c1-c1cccc(F)c1 (stereo unspecified)
8,289 to 290,OC(CNc1ccnc2ccccc12)c1ccccc1 (stereo unspecified)
9,137 to 138,CN(C(=O)c1ccc2nonc2c1)C1CCC(F)(F)CC1
10,220 to 221,Cc1ccc(S(=O)(=O)N2c3ccc(Cl)cc3C(O)(c3ccccc3Cl)C2C(=O)N(C)C)cc1 (stereo unspecified)
11,118 to 122,Nc1cccc(C2=NNC(=O)Cc3cc4c(cc32)OCO4)c1
12,90 to 108,Cc1cn(S(=O)(=O)c2cccc(C(C)(C)C)c2)c2ccc(C(F)(F)F)cc12
13,150 to 152,Cc1n[nH]c(CC#N)c1Oc1cc(Cl)cc(Cl)c1
14,228 to 232,COc1ccc(N2CC(=O)c3ccccc3S2)cc1O
15,210 to 212,COc1ccc(C=C2SC(=O)NC2=O)cc1C(=O)NCc1ccc(C(F)(F)F)cc1
16,119,CC(C)c1cccc(S(=O)(=O)n2c(CCCC(=O)O)cc3nc(Cl)ccc32)c1
17,192,CSc1nc2ccnn2c2ncccc12
18,320 to 322,Nc1ncc2cc(-c3c(Cl)ccc(Cl)c3Cl)c(N)nc2n1
19,127 to 129,COC(=O)c1ccc(CC(C)(C)NCC(O)c2cc3ccccc3o2)cc1 (stereo unspecified)
20,122 to 125,Cc1ccc(-c2nnc(N3CCCC(O)C3)nc2-c2ccc(C)cc2)cc1 (stereo unspecified)
21,74 to 75,CCCCCC#CCOc1ccc2ccc(=O)oc2c1
22,224 to 226,Cc1nc2c(-c3cccc(N4CCN(C)CC4)c3)cnn2c(N)c1-c1ccc(F)c(Cl)c1
23,236,Cc1ccc(NC(=O)c2c(Cl)cccc2Cl)c2nccc(-n3ccnc3)c12
24,236 to 237,COc1cc(Cc2cnc(N)nc2N)cc2c1OC(C)(C)C=C2C#CCO
25,153 to 154,COCCOc1ccc(CCCOC(=O)NS(N)(=O)=O)c(Oc2ncc(Cl)cc2Cl)c1

row,melting point [°C],Compound
1,66 to 67,COC(=O)C(C)(C)OCc1nn(Cc2ccccc2)c2ccccc12
2,75 to 77,Cc1ccccc1Sc1cccc(CO)c1O
3,236 to 237,C[C@@H]1O[C@](/C=C/C2CC2)(C(F)(F)F)c2c(ccc3c2OCO3)NC1=O (relative stereo)
4,109 to 111,C#Cc1ccc(Nc2c(C(=O)c3ccccn3)ccc(F)c2F)c(F)c1
5,154 to 157,N#Cc1c(Br)c(Br)n(C(=O)c2ccc(Cl)cc2)c1Br
6,135 to 138,C=C=COc1ccc(-c2ccc(OC=C=C)cc2)cc1
7,245,O=C(Nc1ccc2[nH]c(=O)n(CCCCN3CC=C(c4ccccc4)CC3)c(=O)c2c1)C(F)(F)F
8,220 to 222,O=C(Nc1ccc2cc(CN3CCCCC3)ccc2c1)c1ccc(-c2ccc(Cl)cc2)cc1
9,> 260,Nc1nc(N)nc(-c2csc(-c3ccc(C(F)(F)F)cc3)n2)n1
10,153 to 155,c1ccc(CCC2CCN(Cc3n[nH]c4ccccc34)CC2)cc1
11,232 to 233,CC(C)Oc1ccc2c(c1)N(C)C(=O)N(c1ccc(CC(=O)O)cc1)S2(=O)=O
12,128,FC(F)(F)c1ccc(NC2CCNCC2)nc1
13,111 to 112,CCOC(=O)C(C)Oc1ccc2c(c1)N(C)C(=O)N(c1ccc(Cl)cc1)S2(=O)=O (stereo unspecified)
14,166 to 167,COc1nc(Br)cnc1NS(=O)(=O)c1cccc2c(N(C)C)cccc12
15,97 to 98,COC(=O)CCC(=O)c1cc2c(s1)CCc1ccccc1C2=O
16,243 to 245,Fc1ccc(Oc2ccc(-c3nc4ccccc4[nH]3)cc2)cc1
17,226,NC(C(=O)O)c1ccc(C(=O)O)cc1SCc1ccccc1 (stereo unspecified)
18,80 to 84,CS(=O)(=O)N(Cc1cccnc1)c1ccccc1OCC(F)(F)F
19,173 to 174,Cc1nc2cc(C(F)(F)F)c(Cl)c(N)c2n1N(C)C
20,253 to 255,CCc1nc(N)nc(N)c1-c1ccc(NCc2ccccc2)c([N+](=O)[O-])c1
21,171 to 173,CP(C)(=O)COC(=O)c1ccc(-n2c(-c3ccccc3)cc3c2-c2ccccc2CC3)cc1
22,124 to 126,O=C(c1cccnc1)N1CCC(c2cccc(Cl)c2)=N1
23,151 to 152,CCOC(=O)C1=C(C)NC(C)=C(C(=O)OCC)C1c1ccc(Cl)cc1
24,128 to 133,Cc1ccc(S(=O)(=O)Nc2c(CCCCCCC(=O)O)ccc3ccccc23)cc1
25,> 280,O=C1c2ccc(Br)cc2C(=O)c2ccc(Br)cc21
